Patent US9862746B2, “Compositions and methods relating to hindering DOT1L recruitment by MLL-fusion proteins” (The Regents of the University of Michigan, priority 2013, dated 2018)
Where a SMILES comes first, the peptide text is derived from it. Where no end group is shown, it is not given here.

Columns and labels:
ENL = biological target: T1, ENL (Homo sapiens, UniProt Q03111); assay: Solution competitive SPR assay of peptides, ENL-DOT1L interaction; assay type: binding; conditions: read-out: IC50 against ENL (block PPI DOT1L/ENL)
T1 construct: against AF9(497-568) and ENL (489-559) proteins running different tested concentrations over CM5 chip; MBP (pMSCG9-LIC vector); made in house; host or cells: Escherichia coli BL21 (DE3)
T1 sequence (Q03111 489-559): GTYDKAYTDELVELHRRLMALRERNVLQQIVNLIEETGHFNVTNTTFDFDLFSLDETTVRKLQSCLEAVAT
Procedure: (§1) Solution competitive SPR based assay was performed to determine the IC50 values of DOT1L peptides. […] Response units (RU) were measured at 15 seconds in the dissociation phase and the specific binding was calculated by subtracting the control surface (Fcl) signal from the surfaces with immobilized Mocr-DOT1L. IC50 values were determined by non-linear least squares analysis using Graph Pad Prism 5.0 software.

AF9 [1] = biological target: T2, AF9 (Homo sapiens, UniProt P42568); assay: Optimized competitive FP binding assay (N-Flu-DOT1L / AF9); parameters: the recombinant GB1-AF9 protein (residues 497-568); made in house; host or cells: Escherichia coli BL21 (DE3)
T2 sequence (P42568 497-568): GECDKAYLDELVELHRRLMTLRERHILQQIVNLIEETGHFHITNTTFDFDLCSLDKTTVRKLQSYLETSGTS

[2] = biological target: T3, Flag-DOT1L and Myc-CxxC-AF9 interaction (Homo sapiens, UniProt P42568+Q03164); assay: Co-immunoprecipitation in HEK 293 cell lysate; assay type: binding; conditions: HEK 293 whole cell lysate pre-incubated with peptide
T3 construct: expressed in transfected cells; host or cells: HEK 293
Procedure: (§2) To assess whether DOT1L 10-mer peptide can bind and block the interaction between full length DOT1L and MLL-fusion proteins HEK 293 cells were transiently co-transfected ith Flag-tagged human DOT1L protein and Myc-tagged CxxC-AF9 protein. The whole cell lysate was pre-incubated with different concentrations of DOT1L 10-mer peptide and co-immunoprecipitation (co-IP) experiments were performed. […] To further probe and confirm the cellular target for DOT1L 10-mer peptide, a biotinylated DOT1L 10-mer peptide was synthesized. To determine the binding affinity of this labeled peptide FP competitive based assay was used and tested together with corresponding unlabeled DOT1L 10 mer peptide.
Cell Culture, Transfections, and Immunoprecipitation—HEK293 cells were plated in 100 mm culture dishes and cultured in Dulbecco's modified Eagle's medium (DMEM) supplemented with 10% FBS and antibiotics. Co-transfection with FLAG-DOTL and Myc-CxxC-AF9 was performed using Lipofectamine 2000 (Invitrogen). […] After incubation, the beads were washed extensively, boiled in SDS loading buffer and analyzed by western blotting using mouse monoclonal anti-FLAG M2 (Sigma-Aldrich) and goat monoclonal anti-Myc tag (Abcam) antibody.

AF9 [3] = biological target: T2, AF9; assay: Solution competitive SPR assay of peptides, AF9-DOT1L interaction; assay type: binding; parameters: against AF9(497-568) and ENL (489-559) proteins running different tested concentrations over CM5 chip; GB1 (pGB1-LIC vector); made in house; host or cells: Escherichia coli BL21 (DE3); conditions: read-out: IC50 against AF9 (block PPI DOT1L/AF9)
Procedure: as §1

MBP-ENL (489-559) = biological target: T4, MBP-ENL (489-559) (Homo sapiens, UniProt Q03111); assay: Isothermal titration calorimetry with MBP-ENL; assay type: binding; conditions: ITC, MBP-tagged ENL, 1:1 stoichiometry; read-out: KD to ENL protein
T4 construct: MBP-ENL (489-559) was dialysed extensively; made in house; host or cells: Escherichia coli BL21 (DE3)
T4 sequence (Q03111 489-559): T1 sequence (Q03111 489-559)
Procedure: (§3) Isothermal titration calorimetry—ITC was carried out using a Nano-ITC Micro Calorimeter (TA Instruments) at 20° C. MBP-ENL (489-559) was dialysed extensively against 50 mM Na2HPO4, (pH 7.5) and 100 mM NaCl, and 80 μM was used for titration studies of DOT1L 16-mer and 10-mer peptides, and 110 μM for DOT1L 7-mer titration. Tested peptides dissolved in the same buffer at 400 μM (DOT1L 16-mer and 10-mer) or 500 μM (DOT1L 7-mer) were tested by injecting 2 μl aliquots into the protein sample, at time intervals of […], to ensure that the titration peak returned to the baseline. The ITC data were analyzed by NanoAnalyze software package using a one site-binding model.

MBP tag = MBP tag (Escherichia coli, UniProt P0AEX9); assay: Isothermal titration calorimetry with MBP tag only; assay type: binding; conditions: ITC
Procedure: FIG. 4 describes isothermal titration calorimetry (ITC) of MBP tag only (80 μM) with a solution of DOT1L 16-mer (400 μM). The raw data are shown in the upper panel, and the integrated heat data are shown in the lower panel.
as §3

Myc-CxxC-AF9 = biological target: T5, Myc-CxxC-AF9 (Homo sapiens, UniProt P42568+Q03164); assay: Streptavidin-biotin pull-down in HEK 293 cell lysate; assay type: binding; conditions: HEK 293 cell lysates
T5 construct: expressed in transfected cells; host or cells: HEK293
Procedure: as §2
Pull-down assay—HEK293 cells transfected with Myc-CxxC-AF9 were lysed in BC-300 lysis buffer in a same way as the immunoprecipitation experiment. The supernatant was pre-cleared for 2 h in streptavidin agarose beads (Thermal Scientific). The pre-cleared lysates were incubated with different concentrations of biotin-labeled DOT1L 10 mer peptide at 4° C. overnight. The next day, the cell lysate were incubated with streptavidin agarose at 4° C. for 2 h. After extensive washing the beads with the BC-300 lysis buffer without NP-40, the pull down samples were applied to SDS-PAGE electrophoresis and pull-down Myc-CxxC-AF9 protein was probed with goat monoclonal anti-Myc tag antibody (Abcam).

T5 sequence (Q03164+P42568 fused): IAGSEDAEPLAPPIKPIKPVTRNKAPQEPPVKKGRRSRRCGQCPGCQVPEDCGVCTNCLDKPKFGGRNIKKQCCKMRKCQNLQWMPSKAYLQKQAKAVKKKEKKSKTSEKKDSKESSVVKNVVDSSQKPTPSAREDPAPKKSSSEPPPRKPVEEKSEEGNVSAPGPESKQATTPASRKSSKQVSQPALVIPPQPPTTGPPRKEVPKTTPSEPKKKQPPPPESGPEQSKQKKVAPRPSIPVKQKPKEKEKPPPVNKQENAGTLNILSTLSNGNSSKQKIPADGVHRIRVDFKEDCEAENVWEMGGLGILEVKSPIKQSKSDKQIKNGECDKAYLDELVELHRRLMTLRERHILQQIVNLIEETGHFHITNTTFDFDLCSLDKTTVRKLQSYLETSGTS
T3 sequence (Q03164+P42568 fused): as above

Molecule | IC50 (ENL) [nM] | Ki (AF9 [1]) [nM] | disruption of DOT1L / CxxC-AF9 interaction (co-IP) [2] | IC50 (AF9 [3]) [nM] | Kd (MBP-ENL (489-559)) [nM] | binding to the MBP tag only (MBP tag) | binding to cellular CxxC-AF9 (pull-down) (Myc-CxxC-AF9)
CC[C@H](C)[C@H](NC(=O)[C@@H]1CCCN1C(=O)[C@H](CC(C)C)NC(C)=O)C(=O)N[C@@H](CO)C(=O)N[C@H](C(=O)N1CCC[C@H]1C(=O)N[C@@H](CC(C)C)C(=O)N[C@@H](CO)C(=O)N[C@H](C(=O)N[C@H](C(N)=O)C(C)C)[C@@H](C)O)[C@@H](C)CC [DOT1L 10mer] (Ac-LPISIPLSTV-NH2) | 1340 | 68 ± 15 | blocks the interaction of cellular DOT1L with CxxC-AF9 in a dose dependent manner | 490 | 1100 | – | –
CC[C@H](C)[C@H](NC(=O)[C@@H]1CCCN1C(=O)[C@H](CC(C)C)NC(C)=O)C(=O)N[C@@H](CO)C(=O)N[C@H](C(=O)N1CCC[C@H]1C(=O)N[C@@H](CC(C)C)C(=O)N[C@@H](CO)C(=O)N[C@H](C(=O)N[C@H](C(=O)N[C@@H](CCC(N)=O)C(=O)N1CCC[C@H]1C(=O)N[C@@H](CC(N)=O)C(=O)N[C@@H](CCCCN)C(=O)N[C@@H](CC(C)C)C(=O)N1CCC[C@H]1C(N)=O)C(C)C)[C@@H](C)O)[C@@H](C)CC [DOT1L 16 mer] (Ac-LPISIPLSTVQPNKLP-NH2) | 1560 | 80 | – | 320 | 900 | did not show any binding | –
biotinylated DOT1L 10-mer peptide: DOT1L 10-mer peptide with N-terminal biotin group (LPISIPLSTV-NH2; not fully specified (N-terminus); also: N-terminal biotin coupled to lysine and two β-alanine spacer, order not given here) | – | – | – | – | – | – | recognizes and binds to the cellular CxxC-AF9 protein in a dose dependent manner
